Square brackets hold non-standard residues; d marks the D form. Peptide text beside a SMILES is read from it. Oic = O=C(O)[C@@H]1C[C@@H]2CCCC[C@@H]2N1; d2Nal = N[C@H](Cc1ccc2ccccc2c1)C(=O)O; αMeF = C[C@](N)(Cc1ccccc1)C(=O)O; Orn = NCCC[C@H](N)C(=O)O
How the values were obtained:
[1] = molecular target: T1, angiotensin converting enzyme (ACE) (Oryctolagus cuniculus, UniProt P12822); assay: In vitro metabolic stability against purified rabbit lung ACE; assay type: in vitro ADME; conditions: purified angiotensin converting enzyme from rabbit lung, pH 7.5, peptide 200 μM, 60 min at 37° C., mean ± SEM of 3, read-out: Peptide metabolism (%) Rabbit lung ACE
T1 construct: In Vitro Biochemical Stability Assays Against Purified Native Enzymes; purchased Sigma, St. Louis, Mo; host or cells: rabbit lung
T1 sequence (P12822 34-1310): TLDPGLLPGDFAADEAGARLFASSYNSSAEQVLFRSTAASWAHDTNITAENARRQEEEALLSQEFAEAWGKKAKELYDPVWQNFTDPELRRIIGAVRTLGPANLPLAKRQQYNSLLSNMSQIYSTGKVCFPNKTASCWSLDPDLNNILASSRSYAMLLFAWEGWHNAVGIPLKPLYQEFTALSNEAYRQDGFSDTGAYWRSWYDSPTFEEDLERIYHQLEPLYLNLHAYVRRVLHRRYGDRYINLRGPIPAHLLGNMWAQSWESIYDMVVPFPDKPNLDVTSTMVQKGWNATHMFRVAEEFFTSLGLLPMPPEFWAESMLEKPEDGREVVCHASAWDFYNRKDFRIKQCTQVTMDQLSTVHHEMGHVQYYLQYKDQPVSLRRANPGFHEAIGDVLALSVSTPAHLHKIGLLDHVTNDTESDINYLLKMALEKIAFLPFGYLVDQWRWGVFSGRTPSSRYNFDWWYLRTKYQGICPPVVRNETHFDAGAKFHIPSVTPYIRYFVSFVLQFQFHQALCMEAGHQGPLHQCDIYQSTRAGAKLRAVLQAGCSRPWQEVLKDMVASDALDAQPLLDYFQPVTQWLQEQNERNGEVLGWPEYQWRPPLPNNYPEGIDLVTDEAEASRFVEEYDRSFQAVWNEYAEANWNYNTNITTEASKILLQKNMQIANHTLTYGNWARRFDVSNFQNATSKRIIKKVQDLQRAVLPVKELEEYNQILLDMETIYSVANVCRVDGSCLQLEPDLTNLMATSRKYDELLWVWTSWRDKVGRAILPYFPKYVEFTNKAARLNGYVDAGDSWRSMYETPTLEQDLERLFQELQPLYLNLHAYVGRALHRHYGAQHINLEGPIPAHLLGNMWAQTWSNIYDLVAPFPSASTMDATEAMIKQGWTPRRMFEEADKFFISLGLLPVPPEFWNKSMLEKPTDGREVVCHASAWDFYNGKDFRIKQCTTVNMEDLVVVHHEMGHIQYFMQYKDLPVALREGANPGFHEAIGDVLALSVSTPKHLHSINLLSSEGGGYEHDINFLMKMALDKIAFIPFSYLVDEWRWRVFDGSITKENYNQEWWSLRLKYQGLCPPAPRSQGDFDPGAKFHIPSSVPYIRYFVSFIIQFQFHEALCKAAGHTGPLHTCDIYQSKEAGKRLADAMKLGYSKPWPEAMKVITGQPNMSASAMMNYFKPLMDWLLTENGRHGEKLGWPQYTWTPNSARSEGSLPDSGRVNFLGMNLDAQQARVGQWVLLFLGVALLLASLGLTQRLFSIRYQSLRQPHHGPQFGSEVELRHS
Method: (§1) These assays were performed using three enzyme preparations: purified angiotensin converting enzyme (ACE; from rabbit lung), human plasma as a, source of aminopeptidase M (AmM) and human platelets as a source of aminopeptidase P (AmP).
Purified ACE from rabbit lungs (Sigma, St. Louis, Mo.) was dissolved in PBS (50 mM, pH 7.5, containing 300 mM NaCl and 10 μM ZnCl2; the final concentration of ACE was 45 μg/ml). Each of the peptide antagonists (200 μM) was incubated for 60 min at 37° C. with ACE (8.5 μl) (total volume medium, 187.5 μl). The enzymatic reaction was then terminated by boiling.
The experimental protocol for the measurement of ACE activity has been described elsewhere (Drapeau et a). 1993, J Pharmacol Exp Ther 266, 192–198; Gobeil et al., 1996, supra).

aminopeptidase P (AmP) = molecular target: T2, aminopeptidase P (AmP) (Homo sapiens, UniProt Q9NQW7); assay: In vitro metabolic stability against human platelets AmP; assay type: in vitro ADME; conditions: mean ± SEM of 3 experiments
T2 construct: from tissue; host or cells: human platelets, freeze-thawed and sonicated, 43 000 x g supernatant
Method: as §1
Human platelet AmP was prepared as described by Maggiora et al. (1999, J Med Chem 42, 2394–2402). Human platelets (40 ml) were centrifuged at 250×g for 7 min at room temperature. The resulting supernatant was recentrifuged at 2790×g for 15 min at room temperature. Pellets were collected, resuspended in 40 ml of phosphate-buffered saline (PBS) containing 3.5% of sodium citrate, and then re-centrifuged at 2790×g for 15 min at room temperature. This washing step was repeated. Pellets were resuspended in 4 ml of PBS-sodium citrate, snap-frozen in liquid nitrogen, thawed at 37° C., sonicated briefly, and then centrifuged at 43 000×g for 2 h at 4° C. (Sorvall RC 5B, ss-34 rotor). The resulting supernatant was used for enzyme assays as described in Neugebauer et al. (Neugebauer et al. 2002, supra).

[2] = Circulatory half-life in rat plasma after bolus i.v. administration; assay type: in vivo; conditions: iv, 2.5 mg/kg body weight, direct i.v. jugular administration, anaesthetized rats
Method: Rats were anesthetized with the administration of ketamine/xylazine (100 mg/ml:0.1 ml/100 g, i.p.). For ex vivo analysis, blood was collected by cardiac puncture and placed into 5 ml vacutainer tubes containing 0.5 ml of 0.1 M Na2CO3 (for blood and plasma). For in vivo analysis, the drug was administered by i.v. bolus (2.5 mg/kg body weight) in the jugular vein of anesthetized rats and blood was collected as described above after 2, 5, 15, 30, 60, 120, 180 and 240 min.
Quantitative analysis of the extracted compound and standard controls was carried out using an Agilent reverse-phase HPLC (model 1100) coupled to a 4.6×150 mm Zorbax 300SB-C18 column (5 μm particle size) and equipped with a diode array detector. The peptides were eluted at a flow rate of 0.7 ml/min. with a linear gradient ranging from 5 to 65% of acetonitrile/TFA 0.05%/water over 32 min. at 25° C. The elution positions and quantification of compounds were determined by following the absorbance at 226 nm.
Concentrations of the peak's products were estimated using a computer software program (Chemstation for LC 3D, Agilent) that controlled all the chromatography operations.

T2 sequence (Q9NQW7 whole entry): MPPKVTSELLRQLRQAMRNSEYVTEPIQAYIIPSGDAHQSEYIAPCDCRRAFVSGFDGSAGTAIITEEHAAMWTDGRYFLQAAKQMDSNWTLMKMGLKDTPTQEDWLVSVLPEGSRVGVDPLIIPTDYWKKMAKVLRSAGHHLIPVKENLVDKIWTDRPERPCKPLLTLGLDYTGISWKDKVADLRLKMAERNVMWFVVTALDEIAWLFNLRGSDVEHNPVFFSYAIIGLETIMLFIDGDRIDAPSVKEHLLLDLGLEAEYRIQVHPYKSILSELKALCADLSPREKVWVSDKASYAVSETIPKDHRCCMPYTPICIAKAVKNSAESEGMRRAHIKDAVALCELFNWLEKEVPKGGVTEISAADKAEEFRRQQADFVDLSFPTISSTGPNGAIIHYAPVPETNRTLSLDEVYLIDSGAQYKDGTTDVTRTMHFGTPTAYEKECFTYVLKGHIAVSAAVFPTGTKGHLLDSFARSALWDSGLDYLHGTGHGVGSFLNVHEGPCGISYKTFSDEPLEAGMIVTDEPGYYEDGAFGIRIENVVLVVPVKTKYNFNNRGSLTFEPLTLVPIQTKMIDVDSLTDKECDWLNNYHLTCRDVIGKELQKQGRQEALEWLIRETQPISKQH

SMILES | metabolised at 1 h, 200 µM [1] | Peptide metabolism (%) Human platelets AmP (aminopeptidase P (AmP)) | half-life [2]
CC[C@H](C)[C@H](NC(=O)[C@@H](Cc1ccc2ccccc2c1)NC(=O)[C@H](CO)NC(=O)[C@](C)(Cc1ccccc1)NC(=O)CNC(=O)[C@@H]1CCCN1C(=O)[C@@H]1C[C@@H]2CCCC[C@@H]2N1C(=O)[C@H](CCCNC(=N)N)NC(=O)[C@H](CCCCN)NC(C)=O)C(=O)O [Ac-Lys[Oic^2,(α-Me)Phe^5,D-βNal^7,Ile^8]desArg^9BK] (Ac-KR[Oic]PG[αMeF]S[d2Nal]I-OH) | 0% | 12 ± 4% | –
CC[C@H](C)[C@H](NC(=O)[C@@H](Cc1ccc2ccccc2c1)NC(=O)[C@H](CO)NC(=O)[C@](C)(Cc1ccccc1)NC(=O)CNC(=O)[C@@H]1CCCN1C(=O)[C@@H]1C[C@@H]2CCCC[C@@H]2N1C(=O)[C@H](CCCNC(=N)N)NC(=O)[C@H](CCCN)NC(C)=O)C(=O)O [compound c, Ac-Orn[Oic^2,(α-Me)Phe^5,D-βNal^7,Ile^8]desArg^9BK] (Ac-[Orn]R[Oic]PG[αMeF]S[d2Nal]I-OH) | 0% | 12 ± 2% | > 2 h
